Settings: Liquid; for mass density: 295 K, 101.33 kPa, Vibrating tube method; for vapor or sublimation pressure: Closed cell (Static) method

CC(C)CC(C)(C)C [2,2,4-trimethylpentane]
Settings | mass density [kg/m3] | vapor or sublimation pressure [kPa]
– | 690.4 | –
388.02 K | – | 163
392.98 K | – | 184
398.09 K | – | 208
403.09 K | – | 233
408.08 K | – | 262
413.12 K | – | 293
418.11 K | – | 326
423.15 K | – | 362
428.13 K | – | 401
433.09 K | – | 442
438.15 K | – | 488
443.1 K | – | 536
448.13 K | – | 589
453.09 K | – | 644
458.11 K | – | 704
463.05 K | – | 769
468.08 K | – | 837
473.08 K | – | 911
483.1 K | – | 1072
493.14 K | – | 1255
503.18 K | – | 1459
508.17 K | – | 1571

Cc1ccco1 [2-methylfuran]
Settings | mass density [kg/m3] | vapor or sublimation pressure [kPa]
– | 916.7 | –
353.1 K | – | 167
358.07 K | – | 194
363.06 K | – | 224
368.02 K | – | 257
372.97 K | – | 294
377.98 K | – | 334
382.99 K | – | 379
387.96 K | – | 427
392.97 K | – | 480
397.93 K | – | 538
402.98 K | – | 600
407.95 K | – | 670
412.96 K | – | 743
417.96 K | – | 823
422.94 K | – | 909
427.97 K | – | 1001
432.93 K | – | 1099
437.97 K | – | 1206
442.93 K | – | 1319
447.95 K | – | 1442
452.97 K | – | 1571
457.97 K | – | 1710
462.96 K | – | 1856
467.96 K | – | 2013
472.97 K | – | 2179
482.96 K | – | 2541
492.93 K | – | 2947
502.93 K | – | 3403
507.92 K | – | 3651

CC1CCCO1 (stereo not given) [2-methyltetrahydrofuran]
Settings | mass density [kg/m3] | vapor or sublimation pressure [kPa]
– | 851.6 | –
368.95 K | – | 163
372.89 K | – | 181
377.88 K | – | 207
382.89 K | – | 237
387.86 K | – | 268
392.93 K | – | 304
398.03 K | – | 344
403.02 K | – | 386
408.05 K | – | 432
413.07 K | – | 483
418.08 K | – | 538
423.11 K | – | 597
428.18 K | – | 661
433.16 K | – | 730
438.19 K | – | 804
443.19 K | – | 883
448.17 K | – | 968
453.22 K | – | 1060
458.19 K | – | 1157
463.25 K | – | 1262
468.25 K | – | 1372
473.2 K | – | 1489
483.25 K | – | 1746
493.28 K | – | 2035
503.24 K | – | 2358
508.21 K | – | 2532
